Experimental data taken from US20180008572A1, “ANTIMETASTATIC COMPOSITION COMPRISING AT LEAST ONE FLAVANOL-TYPE COMPOUND” (priority 2014, published 2018).

Experiments:
[1] = tested on: SiHa-F3 cells; assay: Tumor cell migration in a Boyden chamber; assay type: cell-based, human; conditions: for migration of the cancer cells (% of the control): Boyden chamber, 16 h, 100 nM to 1 mM
Procedure: Tests of cell migration and of survival of the treated cells were carried out with a model of super-invasive tumor cells obtained from a human cervical adenocarcinoma cell line, SiHa. The selection of the super-invasive SiHa-F3 cells (F3 on the graphs) was carried out after three consecutive invasions in vitro in permeable supports of Transwell® type coated with Matrigel® (Porporato P E et al., Cell Rep 2014, 8:754-766). […] The actual migration of the tumor cells was measured in a Boyden chamber with 50 000 cells per well and 0.15% of fetal bovine serum (FBS) used as chemoattractant. The pore diameters of the porous membrane separating the two compartments of the Boyden chamber were fixed at 8 μm. After 16 hours of migration, the cells were first fixed with methanol for 3 min and then stained with crystal violet. The culture medium used was DMEM 4.5 g/l of glucose, GlutaMAX®, 1% of a solution of penicillin/streptomycin and 10% of fetal bovine serum. Cell migration measurements: A 48-well reusable Boyden chamber (Neuroprobe) was used according to the manufacturer's instructions. Briefly, medium containing 0.15% of fetal bovine serum served as chemoattractant in the lower compartment, a polycarbonate membrane pierced with pores 8 μm in diameter separated the two compartments, and 50 000 SiHa-F3 cells in suspension in the presence of the indicated compounds were introduced into the upper compartment. The migration of the cells was quantified after an overnight period (16 h). The cells, having migrated, were fixed for 3 min in methanol, stained with 0.23% crystal violet for 30 min, and counted on photographs taken at a magnification of ×2.5 using an inverted-phase microscope (Axiovert and Mrc camera, Zeiss). […] Results were expressed as % of the control.

[2] = tested on: SiHa-F3 cells; assay: Level of reactive oxygen species (ROSs), DCFDA technique; assay type: cell-based, human; conditions: 1 μM, 60 minutes of pretreatment
Procedure: Moreover, an evaluation of the impact of the products tested on the level of reactive oxygen species (ROSs) observed was carried out according to the DCFDA technique after 60 minutes of pretreatment of the SiHa-F3 metastatic progenitor cells with the products tested. Measurement of total cell ROSs: 20 000 SiHa-F3 cells were seeded before being treated for 1 h with the compounds indicated. The cells were then incubated for 30 min at 37° C. in a 1 μM solution of H2-DCFDA (Invitrogen) in HBSS containing 10 mM of HEPES, before measurement of the absorbance at 535 nm (Victor X4 spectrophotometer, Perkin Elmer).

[3] = tested on: melanoma cells; conditions: mice having received cancer cells by intravenous injection; cited from earlier work
[4] = tested on: SiHa-F3 cells; assay: Cell survival of SiHa-F3 tumor cells (crystal violet or MTT); assay type: cell-based, human; conditions: 1 μM
Procedure: Tests of cell migration and of survival of the treated cells were carried out with a model of super-invasive tumor cells obtained from a human cervical adenocarcinoma cell line, SiHa. The selection of the super-invasive SiHa-F3 cells (F3 on the graphs) was carried out after three consecutive invasions in vitro in permeable supports of Transwell® type coated with Matrigel® (Porporato P E et al., Cell Rep 2014, 8:754-766).
The cell survival, in order to exclude any toxic effect of the products tested, was estimated either on the basis of the quantification of the cells stained with crystal violet, or by measuring the mitochondrial succinate dehydrogenase (SDH) activity on the reduction of the MTT tetrazolium salt (suspension of formazan obtained in DMSO and measurement of absorbance at 570 nm).
Measurement of cell viability: 20 000 SiHa-F3 cells were seeded and treated with the indicated compounds overnight (16 h). The cells were then fixed for 3 min with methanol, stained with 0.23% crystal violet, and resuspended in DMSO in order to measure the absorbance at 595 nm (Victor X4 spectrophotometer, Perkin Elmer); or alternatively incubated for 3 h at 37° C. in a saturating solution of MTT in HBSS containing 10 mM of HEPES, and resuspended in DMSO in order to measure the absorbance at 630 nm (Victor X4 spectrophotometer, Perkin Elmer). […]

[5] = compared with epigallocatechin-3-gallate (EGCG); cited from earlier work
[6] = tested on: B16F10 murine melanoma cells; assay: Model of experimental lung metastases: pretreated B16F10 cells injected into the caudal vein; assay type: in vivo, C57BL/6 mice; conditions: B16F10 cells pretreated with rotenone 10 nM + 10 μM compound, 14 days after injection
Source text: The B16F10 tumor cells come from the ATCC collection. The male 6- or 7-week-old C57BL/6 mice were acquired from the Janvier laboratories, and the protocols were applied with the agreement of the UCL ethics committee and while adhering to Belgian laws relating to animal care. Model of experimental metastases: the B16F10 cells were pretreated with DMSO (0.5%, rotenone carrier, negative control) or rotenone (respiratory chain complex I inhibitor and mitochondrial superoxide inducer as described in Porporato P E et al., Cell Rep 2014, 8:754-766, positive control), alone or in combination with the indicated compounds for 6 h. The cells were then detached, counted and resuspended in a proportion of 10×10^6 cells/ml in HBSS without calcium or magnesium. 10^6 cells (i.e. 100 μl of the suspension) were then injected into the caudal vein of C57BL/6 mice. 14 days after injection of the cells, the mice were sacrificed, the lungs were isolated and the metastases (spots positive for melanin) were counted under a dissection microscope.

| SMILES | decrease in the number of tumor cells migrating from one compartment to the other of the Boyden cell ([1]; 1 μM, 16 hours of migration) | migration of the cancer cells (% of the control) [1] | reduction in the level of reactive oxygen species (ROSs) produced by the cells [2] | melanoma cell invasion [3] | survival of the tumor cells [4] | anti-proliferative effect [5] | formation of lung metastases [6] |
| --- | --- | --- | --- | --- | --- | --- | --- |
| Oc1cc(O)c2c(c1)O[C@H](c1ccc(O)c(O)c1)[C@@H](O)C2 [(+)-catechin] | does not however make it possible to significantly decrease | not the (+)-catechin, inhibit the migration of the cancer cells | no impact | inhibited | does not affect the survival of the tumor cells | negligible |  |
| O=C(O[C@@H]1Cc2c(O)cc(O)cc2O[C@@H]1c1cc(O)c(O)c(O)c1)c1cc(O)c(O)c(O)c1 [epigallocatechin gallate] |  | inhibit the migration of the cancer cells |  |  |  |  | not Epigallocatechin Gallate Reduces the Formation of Lung Metastases |
